pKi: −log10 of the molar value.
Target: T1, EGFR del746-750 T790M (Homo sapiens, UniProt P00533, DEL746-750/T790M)
T1 construct: purchased Carna Biosciences 08-528
Assay: EGFR del746-750 T790M biochemical assay (Caliper mobility shift)
Details: 5 μM ATP, 30 min, room temperature; apparent Ki (Morrison) converted by Cheng-Prusoff, Km of ATP 2.1 μM; read-out: EGFR(T790M/d746-750) Ki

T1 sequence (P00533 with tags, fused parts or gaps DEL746-750/T790M limits assumed): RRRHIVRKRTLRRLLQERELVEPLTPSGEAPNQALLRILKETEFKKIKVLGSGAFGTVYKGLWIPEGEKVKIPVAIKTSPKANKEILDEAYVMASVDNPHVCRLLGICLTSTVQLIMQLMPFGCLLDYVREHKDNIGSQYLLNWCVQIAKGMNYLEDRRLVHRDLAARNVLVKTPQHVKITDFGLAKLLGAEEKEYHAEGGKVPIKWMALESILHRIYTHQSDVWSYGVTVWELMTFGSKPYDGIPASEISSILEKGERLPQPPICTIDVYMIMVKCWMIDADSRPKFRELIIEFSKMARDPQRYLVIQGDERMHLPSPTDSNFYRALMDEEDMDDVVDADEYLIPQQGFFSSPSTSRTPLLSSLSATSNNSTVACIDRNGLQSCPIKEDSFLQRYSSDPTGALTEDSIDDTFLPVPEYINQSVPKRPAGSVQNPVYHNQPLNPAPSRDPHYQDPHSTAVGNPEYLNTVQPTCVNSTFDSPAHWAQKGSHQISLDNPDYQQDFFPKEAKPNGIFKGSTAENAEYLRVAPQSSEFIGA

pKi	Structure (SMILES)
8.16	COCc1nc2cnc(Nc3ccnc(-c4cnn(S(=O)(=O)C5CC5)c4)n3)cc2n1C(C)C [Example 279, [2-(1-Cyclopropanesulfonyl-1H-pyrazol-4-yl)-pyrimidin-4-yl]-(1-isopropyl-2-methoxymethyl-1H-imidazo[4,5-c]pyridin-6-yl)amine]
8.63	CC[C@@H](C)n1c([C@@H](C)O)nc2cnc(Nc3ccnc(-c4cnn(S(=O)(=O)CC)c4)n3)cc21 [Example 281, (R)-1-{1-((R)-sec-Butyl)-6-[2-(1-ethanesulfonyl-1H-pyrazol-4-yl)-pyrimidin-4-ylamino]-1H-imidazo[4,5-c]pyridin-2-yl}ethanol]
8.40	CO[C@H]1CCN(c2nccc(Nc3cc4c(cn3)nc([C@@H](C)O)n4[C@@H](C)C(F)(F)F)n2)C[C@H]1F [Example 288, (R)-1-[6-[2-((3R,4S)-3-Fluoro-4-methoxypiperidin-1-yl)-pyrimidin-4-ylamino]-1-((S)-2,2,2-trifluoro-1-methylethyl)-1H-imidazo[4,5-c]pyridin-2-yl]ethanol]
8.47	C[C@H](n1c([C@@H](C)O)nc2cnc(Nc3ccnc(N4CC[C@H](O)[C@H](F)C4)n3)cc21)C(F)(F)F [Example 289, (3R,4S)-3-Fluoro-1-{4-[2-((R)-1-hydroxyethyl)-1-((S)-2,2,2-trifluoro-1-methylethyl)-1H-imidazo[4,5-c]pyridin-6-ylamino]pyrimidin-2-yl}-piperidin-4-ol]
8.33	CO[C@@H]1CCN(c2nccc(Nc3cc4c(cn3)nc([C@@H](C)O)n4[C@@H](C)C(F)(F)F)n2)C[C@@H]1F [Example 290, (R)-1-[6-[2-((3S,4R)-3-Fluoro-4-methoxypiperidin-1-yl)-pyrimidin-4-ylamino]-1-((S)-2,2,2-trifluoro-1-methylethyl)-1H-imidazo[4,5-c]pyridin-2-yl]ethanol]
8.44	C[C@H](n1c([C@@H](C)O)nc2cnc(Nc3ccnc(N4CC[C@@H](O)[C@@H](F)C4)n3)cc21)C(F)(F)F [Example 291, (3S,4R)-3-Fluoro-1-{4-[2-((R)-1-hydroxyethyl)-1-((S)-2,2,2-trifluoro-1-methylethyl)-1H-imidazo[4,5-c]pyridin-6-ylamino]pyrimidin-2-yl}-piperidin-4-ol]
8.53	Cc1nc2cnc(Nc3ccnc(-c4cnc(N(C)C)s4)n3)cc2n1C(C)C [Example 317, [2-(2-Dimethylaminothiazol-5-yl)pyrimidin-4-yl]-(1-isopropyl-2-methyl-1H-imidazo[4,5-c]pyridin-6-yl)amine]
8.55	CC(C)n1cc(-c2cnn(CC(N)=O)c2)c2cnc(Nc3ccnc(-c4cnn(S(=O)(=O)C5CC5)c4)n3)cc21 [Example 331, 2-(4-(6-((2-(1-(Cyclopropylsulfonyl)-1H-pyrazol-4-yl)pyrimidin-4-yl)amino)-1-isopropyl-1H-pyrrolo[3,2-c]pyridin-3-yl)-1H-pyrazol-1-yl)acetamide]
6.28	Cc1nc2cnc(Nc3ccnc(-n4cnc(S(C)(=O)=O)c4)n3)cc2n1C(C)C [Example 337, 1-Isopropyl-2-methyl-N-(2-(4-(methylsulfonyl)-1H-imidazol-1-yl)pyrimidin-4-yl)-1H-imidazo[4,5-c]pyridin-6-amine]
8.51	Cc1cn[nH]c1-c1cn(C(C)C)c2cc(Nc3ccnc(-c4cnn(S(=O)(=O)C5CC5)c4)n3)ncc12 [Example 346, N-(2-(1-(cyclopropylsulfonyl)-1H-pyrazol-4-yl)pyrimidin-4-yl)-1-isopropyl-3-(4-methyl-1H-pyrazol-5-yl)-1H-pyrrolo[3,2-c]pyridin-6-amine]
7.69	Cc1cn[nH]c1-c1cn(C(C)C)c2cc(Nc3ccnc(N4CCC(O)C(C)(C)C4)n3)ncc12 (stereo not shown) [Example 347, 1-(4-((1-Isopropyl-3-(4-methyl-1H-pyrazol-5-yl)-1H-pyrrolo[3,2-c]pyridin-6-yl)amino)pyrimidin-2-yl)-3,3-dimethylpiperidin-4-ol]
7.71	CO[C@H]1CCN(c2nccc(Nc3cc4c(cn3)c(-c3nn(CCO)cc3C)cn4C(C)C)n2)C[C@H]1F [Example 348, 2-(3-(6-((2-((3R,4S)-3-Fluoro-4-methoxypiperidin-1-yl)pyrimidin-4-yl)amino)-1-isopropyl-1H-pyrrolo[3,2-c]pyridin-3-yl)-4-methyl-1H-pyrazol-1-yl)ethanol]
6.16	COC1CCN(c2nccc(Nc3cc4c(cn3)nc(C)n4C(C)CC#N)n2)CC1 (stereo not shown) [Example 349, 3-(6-((2-(4-Methoxypiperidin-1-yl)pyrimidin-4-yl)amino)-2-methyl-1H-imidazo[4,5-c]pyridin-1-yl)butanenitrile]
6.25	COC1CCN(c2nccc(Nc3cc4c(cn3)nc(C)n4Cc3ccccc3)n2)CC1 [Example 356, 1-Benzyl-N-[2-(4-methoxy-1-piperidyl)pyrimidin-4-yl]-2-methyl-imidazo[4,5-c]pyridin-6-amine]
7.53	Cc1cc(-c2nccc(Nc3cc4c(cn3)nc(C)n4C(C)C)n2)sn1 [Example 360, 1-Isopropyl-2-methyl-N-(2-(3-methylisothiazol-5-yl)pyrimidin-4-yl)-1H-imidazo[4,5-c]pyridin-6-amine]
7.51	Cc1nc2cnc(Nc3ccnc(-c4cn(C)nc4N)n3)cc2n1C(C)C [Example 363, N-(2-(3-Amino-1-methyl-1H-pyrazol-4-yl)pyrimidin-4-yl)-1-isopropyl-2-methyl-1H-imidazo[4,5-c]pyridin-6-amine]

pKi	Structure (SMILES)
7.33	Cc1nc2cnc(Nc3ccnc(-c4cnn(C)c4)n3)cc2n1C(C)C [Example 365, 1-Isopropyl-2-methyl-N-(2-(1-methyl-1H-pyrazol-4-yl)pyrimidin-4-yl)-1H-imidazo[4,5-c]pyridin-6-amine]
7.83	Cc1nc2cnc(Nc3ccnc(-c4cnoc4)n3)cc2n1C(C)C [Example 366]
8.48	CCC(C)n1cc(C(=O)NC2CCCOC2)c2cnc(Nc3ccnc(N4CCC(O)C(C)(C)C4)n3)cc21 (stereo not shown) [Example 374, 1-(sec-butyl)-6-((2-(4-hydroxy-3,3-dimethylpiperidin-1-yl)pyrimidin-4-yl)amino)-N-(tetrahydro-2H-pyran-3-yl)-lH-pyrrolo[3,2-c]pyridine-3-carboxamide]
8.16	CO[C@@H]1CCN(c2nccc(Nc3cc4c(cn3)c(C(=O)NC3CCOCC3)cn4C(C)C)n2)C[C@@H]1F [Example 380, 6-((2-((3S,4R)-3-fluoro-4-methoxypiperidin-1-yl)pyrimidin-4-yl)amino)-1-isopropyl-N-(tetrahydro-2H-pyran-4-yl)-1H-pyrrolo [3,2-c]pyridine-3-carboxamide]
8.03	CO[C@H]1CCN(c2nccc(Nc3cc4c(cn3)c(C(=O)NC3CCOCC3)cn4C(C)C)n2)C[C@H]1F [Example 381, 6-((2-((3R,4S)-3-fluoro-4-methoxypiperidin-1-yl)pyrimidin-4-yl)amino)-1-isopropyl-N-(tetrahydro-2H-pyran-4-yl)-1H-pyrrolo [3,2-c]pyridine-3-carboxamide]
8.95	CC(C)n1cc(C(=O)NC2COC2)c2cnc(Nc3ccnc(-c4cnn(S(=O)(=O)C5CC5)c4)n3)cc21 [Example 386, 6-((2-(1-(cyclopropylsulfonyl)-1H-pyrazol-4-yl)pyrimidin-4-yl)amino)-1-isopropyl-N-(oxetan-3-yl)-1H-pyrrolo[3,2-c]pyridine-3-carboxamide]
7.54	CC(C)n1cc(C(=O)NC2COC2)c2cnc(Nc3ccnc(-c4cnn(S(=O)(=O)N5CCCC5)c4)n3)cc21 [Example 388, 1-isopropyl-N-(oxetan-3-yl)-6-((2-(1-(pyrrolidin-1-ylsulfonyl)-1H-pyrazol-4-yl)pyrimidin-4-yl)amino)-1H-pyrrolo[3,2-c]pyridine-3-carboxamide]
8.85	CCS(=O)(=O)n1cc(-c2nccc(Nc3cc4c(cn3)c(-c3cnn(CCS(C)(=O)=O)c3)cn4C(C)C)n2)cn1 [Example 392, N-(2-(1-(ethylsulfonyl)-1H-pyrazol-4-yl)pyrimidin-4-yl)-1-isopropyl-3-(1-(2-(methylsulfonyl)ethyl)-1H-pyrazol-4-yl)-1H-pyrrolo[3,2-c]pyridin-6-amine]
7.84	Cc1nc2cnc(Nc3ccnc(-c4cnn(S(=O)(=O)N(C)C)c4)n3)cc2n1C(C)C [Example 397, 4-(4-((1-isopropyl-2-methyl-1H-imidazo[4,5-c]pyridin-6-yl)amino)pyrimidin-2-yl)-N,N-dimethyl-1H-pyrazole-1-sulfonamide]
7.85	Cc1n[nH]cc1-c1nccc(Nc2cc3c(cn2)nc(C)n3C(C)C)n1 [Example 399, 1-isopropyl-2-methyl-N-(2-(3-methyl-1H-pyrazol-4-yl)pyrimidin-4-yl)-1H-imidazo[4,5-c]pyridin-6-amine]
8.58	COC1CCN(c2nccc(Nc3cc4c(cn3)c(-c3cn[nH]c3)cn4C(C)C)n2)CC1 [Example 401, 1-isopropyl-N-(2-(4-methoxypiperidin-1-yl)pyrimidin-4-yl)-3-(1H-pyrazol-4-yl)-1H-pyrrolo[3,2-c]pyridin-6-amine]
9.08	COC1CCN(c2nccc(Nc3cc4c(cn3)c(-c3cnn(CCO)c3)cn4C(C)C)n2)CC1 [Example 402, 2-(4-(1-isopropyl-6-((2-(4-methoxypiperidin-1-yl)pyrimidin-4-yl)amino)-1H-pyrrolo[3,2-c]pyridin-3-yl)-1H-pyrazol-1-yl)ethanol]
8.71	Cc1nc2cnc(Nc3ccnc(-c4cnn(S(=O)(=O)C(C)C)c4)n3)cc2n1C(C)C [Example 409, 1-isopropyl-N-(2-(1-(isopropylsulfonyl)-1H-pyrazol-4-yl)pyrimidin-4-yl)-2-methyl-1H-imidazo[4,5-c]pyridin-6-amine]
8.31	COC1CCN(c2nccc(Nc3cc4c(cn3)c(-c3cnn(CC(N)=O)c3)cn4C(C)C)n2)CC1 [Example 410, 2-(4-(1-isopropyl-6-((2-(4-methoxypiperidin-1-yl)pyrimidin-4-yl)amino)-1H-pyrrolo[3,2-c]pyridin-3-yl)-1H-pyrazol-1-yl)acetamide]
8.50	COC1CCN(c2nccc(Nc3cc4c(cn3)c(-c3ccn(CC(N)=O)n3)cn4C(C)C)n2)CC1 [Example 411, 2-(3-(1-isopropyl-6-((2-(4-methoxypiperidin-1-yl)pyrimidin-4-yl)amino)-1H-pyrrolo[3,2-c]pyridin-3-yl)-1H-pyrazol-1-yl) acetamide]
